Assay results: US10077261B2, “Imidazolin-5-one derivative useful as FASN inhibitors for the treatment of cancer” (Janssen Pharmaceutica NV, priority 2012, dated 2018)

Assays:
A2780 ovarian cells [1] = assay: A2780 ovarian cell proliferation assay in lipid reduced medium, with palmitate (MTT); assay type: cell-based; conditions: Homo sapiens, A2780, 96 h; read-out: pIC50 A2780 Ovarian Cell, With Palmitate (converted)
Summary of the method: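 In this palmitate-supplemented format, compound dilutions (30 μM down to 0.01 μM) are added to cells in lipid-reduced serum with 25 μM palmitate, 0.2% fatty-acid-free BSA and 0.25% ethanol. After four days (96 h) MTT absorbance at 544 nm is recorded and fitted by minimum sum of squares.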

[2] = biological target: T1, hFASN enzyme (full length) (Homo sapiens, UniProt P49327); assay: Fatty Acid Synthase (FASN) inhibition scintillation proximity assay; assay type: biochemical; conditions: for inhibition at 10 µM: read-out: Human FASN % inhibition @ 10 μM, 10 μM test compound; for IC50: read-out: Human FASN pIC50 (converted)
T1 construct: 10 μL hFASN enzyme (full length, 300 ng, purified in house); made in house
Summary of the method: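 Proximity read-out: hydrophobic ^3H-palmitate formed from ^3H-acetyl-CoA and malonyl-CoA binds streptavidin imaging beads, imaged at 610±20 nm at least 24 h after stopping. Enzyme was in-house purified full-length hFASN, 300 ng, in pH 7.5 phosphate/DTT buffer; compound series 30 μM down to 0.01 μM, normalized to controls, 4-parameter fit.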

[3] = biological target: Fatty Acid Synthase Keto-reductase Domain (FASN KR) (Homo sapiens, UniProt P49327); assay: Fatty Acid Synthase keto-reductase domain (FASN KR) inhibition, NADPH oxidation at 340 nm
Method: After 20 minutes incubation at room temperature the plate was measured again (T2).
The decrease in absorbance was calculated as (Absorbance before incubation T1)−(Absorbance following incubation T2).
A plot of Controlmin versus test compound concentration was fitted to a 4-parameter logistic curve using a non-linear least squares regression method.

[4] = test system: PC-3M-Luc-C6 prostate cells; assay: In vitro PC-3M-Luc-C6 prostate cell proliferation assay in lipid reduced medium; assay type: cell-based; conditions: 96 h, read-out: pIC50 PC-3M-Luc-C6 prostate cell (converted)
[5] = test system: LNCaP-Vancouver prostate cells; assay: In vitro LNCaP Vancouver prostate cell proliferation assay in lipid reduced medium; assay type: cell-based; conditions: read-out: pIC50 LNCaP_Vancouver prostate cell (converted)
A2780 ovarian cells [6] = assay: A2780 ovarian cell proliferation assay in lipid reduced medium, without palmitate (MTT); assay type: cell-based; conditions: Homo sapiens, A2780, 96 h; read-out: pIC50 A2780 Ovarian Cell, Without Palmitate (converted)

T1 sequence (P49327 whole entry): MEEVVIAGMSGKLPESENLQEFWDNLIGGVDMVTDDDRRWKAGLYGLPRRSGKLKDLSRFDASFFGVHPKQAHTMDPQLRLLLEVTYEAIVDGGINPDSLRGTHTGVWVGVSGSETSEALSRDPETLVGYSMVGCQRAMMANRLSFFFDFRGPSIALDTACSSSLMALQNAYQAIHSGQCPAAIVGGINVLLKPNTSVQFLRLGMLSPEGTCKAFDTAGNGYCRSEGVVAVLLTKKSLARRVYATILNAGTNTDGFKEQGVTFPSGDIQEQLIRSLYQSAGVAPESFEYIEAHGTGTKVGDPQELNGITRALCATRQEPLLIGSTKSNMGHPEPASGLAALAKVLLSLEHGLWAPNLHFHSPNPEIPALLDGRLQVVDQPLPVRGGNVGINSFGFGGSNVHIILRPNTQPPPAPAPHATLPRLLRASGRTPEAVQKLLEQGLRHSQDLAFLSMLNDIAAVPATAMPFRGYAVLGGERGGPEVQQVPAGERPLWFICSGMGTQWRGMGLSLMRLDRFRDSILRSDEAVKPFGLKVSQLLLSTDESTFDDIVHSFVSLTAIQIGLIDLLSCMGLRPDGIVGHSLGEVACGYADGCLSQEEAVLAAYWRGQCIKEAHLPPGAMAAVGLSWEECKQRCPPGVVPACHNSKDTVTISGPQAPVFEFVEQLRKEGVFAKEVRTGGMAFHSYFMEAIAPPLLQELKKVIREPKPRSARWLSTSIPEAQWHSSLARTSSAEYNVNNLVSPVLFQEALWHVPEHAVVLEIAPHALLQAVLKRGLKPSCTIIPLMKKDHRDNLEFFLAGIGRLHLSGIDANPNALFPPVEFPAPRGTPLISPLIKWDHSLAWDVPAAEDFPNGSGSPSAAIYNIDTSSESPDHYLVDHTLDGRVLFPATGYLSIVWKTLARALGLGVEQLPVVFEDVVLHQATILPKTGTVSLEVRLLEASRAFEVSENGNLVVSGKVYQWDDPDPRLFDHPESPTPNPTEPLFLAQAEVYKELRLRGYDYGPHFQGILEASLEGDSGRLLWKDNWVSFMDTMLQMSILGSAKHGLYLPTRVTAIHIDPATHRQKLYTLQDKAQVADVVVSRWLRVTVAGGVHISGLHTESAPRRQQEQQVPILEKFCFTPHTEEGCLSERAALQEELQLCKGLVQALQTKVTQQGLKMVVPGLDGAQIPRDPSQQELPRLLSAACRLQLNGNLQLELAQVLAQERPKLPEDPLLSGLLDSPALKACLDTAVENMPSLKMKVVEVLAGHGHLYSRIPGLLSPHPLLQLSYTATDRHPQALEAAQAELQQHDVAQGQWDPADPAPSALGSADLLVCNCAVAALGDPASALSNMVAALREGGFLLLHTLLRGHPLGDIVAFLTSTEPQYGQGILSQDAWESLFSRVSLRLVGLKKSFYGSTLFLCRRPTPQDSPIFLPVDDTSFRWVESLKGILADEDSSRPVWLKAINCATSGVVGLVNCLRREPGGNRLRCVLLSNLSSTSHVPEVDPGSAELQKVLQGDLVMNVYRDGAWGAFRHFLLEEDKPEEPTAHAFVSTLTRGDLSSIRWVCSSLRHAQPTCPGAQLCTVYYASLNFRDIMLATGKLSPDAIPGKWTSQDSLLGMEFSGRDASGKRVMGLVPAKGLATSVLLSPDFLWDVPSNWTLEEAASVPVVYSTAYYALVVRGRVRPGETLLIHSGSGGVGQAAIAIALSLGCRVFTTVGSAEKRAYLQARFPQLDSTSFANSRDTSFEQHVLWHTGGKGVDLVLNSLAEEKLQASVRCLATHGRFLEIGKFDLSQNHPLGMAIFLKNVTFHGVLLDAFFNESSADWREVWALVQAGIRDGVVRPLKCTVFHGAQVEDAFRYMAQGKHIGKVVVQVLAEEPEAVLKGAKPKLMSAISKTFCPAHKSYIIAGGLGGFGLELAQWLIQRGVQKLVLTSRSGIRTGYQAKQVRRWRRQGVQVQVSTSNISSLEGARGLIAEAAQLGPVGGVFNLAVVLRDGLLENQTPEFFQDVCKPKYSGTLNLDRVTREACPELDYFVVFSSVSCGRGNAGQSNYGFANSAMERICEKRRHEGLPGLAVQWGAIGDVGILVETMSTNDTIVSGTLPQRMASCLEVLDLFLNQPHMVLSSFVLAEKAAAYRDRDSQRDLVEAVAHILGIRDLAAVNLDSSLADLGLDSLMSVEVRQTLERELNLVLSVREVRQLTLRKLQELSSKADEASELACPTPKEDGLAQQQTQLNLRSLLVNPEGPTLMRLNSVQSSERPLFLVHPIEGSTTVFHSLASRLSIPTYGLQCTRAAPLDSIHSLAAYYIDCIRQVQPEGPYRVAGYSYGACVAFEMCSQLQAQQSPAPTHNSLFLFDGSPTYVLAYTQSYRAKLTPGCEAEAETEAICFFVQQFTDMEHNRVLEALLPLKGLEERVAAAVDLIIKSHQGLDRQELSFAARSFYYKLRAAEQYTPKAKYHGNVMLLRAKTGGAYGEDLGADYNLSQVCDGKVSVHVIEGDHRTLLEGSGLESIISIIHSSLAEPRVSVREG
Fatty Acid Synthase Keto-reductase Domain (FASN KR), sequence (P49327 whole entry, the tested form may be a part): as the sequence (P49327 whole entry) above

| IC50 (A2780 ovarian cells [1]) [µM] | inhibition at 10 µM [2] [%] | IC50 [2] [µM] | IC50 [3] [µM] | IC50 [4] [µM] | IC50 [5] [µM] | IC50 (A2780 ovarian cells [6]) [µM] | SMILES |
| --- | --- | --- | --- | --- | --- | --- | --- |
| > 10 | 101 | 0.186 | 0.38 | 0.631 | 3.24 | ~0.224 | O=C(C1CC1)N1CC(CN2C(=O)C3(CC3)N=C2c2ccc(-c3cccc(NS(=O)(=O)C4CC4)c3)cc2F)C1 [compound 619, N-[4′-(6-{[1-(Cyclopropylcarbonyl)azetidin-3-yl]methyl}-7-oxo-4,6-diazaspiro[2.4]hept-4-en-5-yl)-3′-fluorobiphenyl-3-yl]cyclopropanesulfonamide] |
| > 10 | 101 | 0.0603 | 0.155 | 0.219 | 0.912 | 0.331 | O=C(C1CC1)N1CC(CN2C(=O)C3(CC3)N=C2c2ccc(-c3ccc4occc4c3)cc2)C1 [compound 49, 5-[4-(1-Benzofuran-5-yl)phenyl]-6-{[1-(cyclopropylcarbonyl)azetidin-3-yl]methyl}-4,6-diazaspiro[2.4]hept-4-en-7-one] |
| > 10 | 88 | 1.23 | 3.55 | ~3.09 | ~7.59 | 0.955 | O=C(C1CC1)N1CC(CN2C(=O)C3(CC3)N=C2c2ccc(-c3ccc4nn(CCO)cc4c3)cc2F)C1 [compound 536, 6-{[1-(Cyclopropylcarbonyl)azetidin-3-yl]methyl}-5-{2-fluoro-4-[2-(2-hydroxyethyl)-2H-indazol-5-yl]phenyl}-4,6-diazaspiro[2.4]hept-4-en-7-one] |
| 4.17 | 100 | 0.0186 | 0.0603 | 0.0123 | 0.107 | 0.0123 | COc1ccc2cc(-c3ccc(C4=NC5(CC5)C(=O)N4CC4CN(C(=O)C5(C)CC5)C4)c(C)c3)ccc2c1 [compound 332, 5-(4-(6-methoxynaphthalen-2-yl)-2-methylphenyl)-6-((1-(1-methylcyclopropanecarbonyl)azetidin-3-yl)methyl)-4,6-diazaspiro[2.4]hept-4-en-7-one] |
| > 10 | 93 | 0.912 | 2.19 | 1.48 | 5.89 | ~1.02 | O=C(C1CC1)N1CC(CN2C(=O)C3(CC3)N=C2c2ccc(-c3ccc(-n4ccnc4)nc3)cc2F)C1 [compound 526, 6-{[1-(Cyclopropylcarbonyl)azetidin-3-yl]methyl}-5-{2-fluoro-4-[6-(1H-imidazol-1-yl)pyridin-3-yl]phenyl}-4,6-diazaspiro[2.4]hept-4-en-7-one] |
| > 10 | 102 | 0.0234 | 0.0245 | 0.0158 | 0.0708 | 0.0204 | Cn1ccc2cc(-c3ccc(C4=NC5(CC5)C(=O)N4C[C@@H]4CCN(C(=O)C5CC5)C4)cc3)ccc21 [compound 215, (R)-6-((1-(cyclopropanecarbonyl)pyrrolidin-3-yl)methyl)-5-(4-(1-methyl-1H-indol-5-yl)phenyl)-4,6-diazaspiro[2.4]hept-4-en-7-one] |
| > 10 | 104 | 0.0417 | 0.055 | 0.0309 | 0.38 | 0.0251 | O=C(C1CC1)N1CC[C@@H](CN2C(=O)C3(CCCC3)N=C2c2ccc(-c3ccc4cn[nH]c4c3)cc2F)C1 [compound 879, (R)-3-((1-(cyclopropanecarbonyl)pyrrolidin-3-yl)methyl)-2-(2-fluoro-4-(1H-indazol-6-yl)phenyl)-1,3-diazaspiro[4.4]non-1-en-4-one] |
| > 6.17 | 91 | 0.457 | 1.45 | 2.19 | > 3.02 | 1.26 | O=C1Cc2cc(-c3ccc(C4=NC5(CC5)C(=O)N4C[C@@H]4CCN(C(=O)C5CC5)C4)cc3)ccc2N1 [compound 457, 5-[4-(6-{[(3R)-1-(Cyclopropylcarbonyl)pyrrolidin-3-yl]methyl}-7-oxo-4,6-diazaspiro[2.4]hept-4-en-5-yl)phenyl]-1,3-dihydro-2H-indol-2-one] |
| > 10 | 102 | 0.017 | 0.0195 | 0.00417 | 0.0166 | ~0.0055 | O=C(C1CC1)N1CC[C@@H](CN2C(=O)C3(CC3)N=C2c2ccc(-c3ccc4cccnc4c3)cc2F)C1 [compound 249, (R)-6-((1-(cyclopropanecarbonyl)pyrrolidin-3-yl)methyl)-5-(2-fluoro-4-(quinolin-7-yl)phenyl)-4,6-diazaspiro[2.4]hept-4-en-7-one] |
| > 10 | 102 | 0.138 | 0.302 | 0.174 | 1.74 | 0.174 | O=C(C1CC1)N1CC[C@@H](CN2C(=O)C3(CC3)N=C2c2ccc(-c3ccc4[nH]ccc4c3)nc2)C1 [compound 402, 6-{[(3R)-1-(Cyclopropylcarbonyl)pyrrolidin-3-yl]methyl}-5-[6-(1H-indol-5-yl)pyridin-3-yl]-4,6-diazaspiro[2.4]hept-4-en-7-one] |
| > 6.17 | 108 | 0.1 | 0.282 | ~1.62 | 2.19 | 2.51 | Cc1cc(C2=NC3(CC3)C(=O)N2C[C@@H]2CCN(C(=O)C3CC3)C2)ccc1-c1ccc2sc(C)c(C)c2c1 [compound 231, (R)-6-((1-(cyclopropanecarbonyl)pyrrolidin-3-yl)methyl)-5-(4-(2,3-dimethylbenzo[b]thiophen-5-yl)-3-methylphenyl)-4,6-diazaspiro[2.4]hept-4-em-7-one] |
| > 10 | 102 | 0.115 | 0.229 | 0.0977 | 0.851 | 0.107 | Cc1cc(-c2cccc(NS(=O)(=O)C3CC3)c2)ccc1C1=NC2(CC2)C(=O)N1C[C@@H]1CCN(C(=O)C2CC2)C1 [compound 613, N-[4′-(6-{[(3R)-1-(Cyclopropylcarbonyl)pyrrolidin-3-yl]methyl}-7-oxo-4,6-diazaspiro[2.4]hept-4-en-5-yl)-3′-methylbiphenyl-3-yl]cyclopropanesulfonamide] |
| > 10 | 98 | 0.055 | 0.178 | ~0.339 | 0.537 | ~0.0331 | Cc1cc(-c2ccc(-c3cnn(C)c3)cc2)ccc1C1=NC2(CC2)C(=O)N1CC1CN(C(=O)C2CC2)C1 [compound 333, 6-((1-(cyclopropanecarbonyl)azetidin-3-yl)methyl)-5-(3-methyl-4′-(1-methyl-1H-pyrazol-4-yl)-[1,1′-biphenyl]-4-yl)-4,6-diazaspiro[2.4]hept-4-en-7-one] |
| ~3.47 | 100 | 0.0437 | 0.0339 | ~0.00661 | 0.0209 | ~0.00437 | Cn1ncc2cc(-c3ccc(C4=NC5(CC5)C(=O)N4C[C@@H]4CCN(C(=O)C5(C)CC5)C4)cc3)ccc21 [compound 201, (R)-5-(4-(1-methyl-1H-indazol-5-yl)phenyl)-6-((1-(1-methylcyclopropanecarbonyl)pyrrolidin-3-yl)methyl)-4,6-diazaspiro[2.4]hept-4-en-7-one] |
| 5.25 | 95 | 0.038 | 0.0741 | 0.0269 | 0.158 | 0.0251 | N#Cc1ccc2cc(-c3ccc(C4=NC5(CC5)C(=O)N4CC4CN(C(=O)C5(F)CC5)C4)c(F)c3)ccc2c1 [compound 225, 6-(3-fluoro-4-(6-((1-(1-fluorocyclopropanecarbonyl)azetidin-3-yl)methyl)-7-oxo-4,6-diazaspiro[2.4]hept-4-en-5-yl)phenyl)-2-naphthonitrile] |
| > 10 | 98 | 0.302 | 0.617 | 0.708 | 2.88 | 0.457 | CC(O)C(=O)N1CC[C@@H](CN2C(=O)C3(CCOCC3)N=C2c2ccc(-c3ccc4cccnc4c3)cc2)C1 (stereo partly drawn) [compound 662, 3-{[(3R)-1-(2-Hydroxypropanoyl)pyrrolidin-3-yl]methyl}-2-(4-quinolin-7-ylphenyl)-8-oxa-1,3-diazaspiro[4.5]dec-1-en-4-one] |
| > 10 | 103 | 0.0575 | 0.0589 | 0.0513 | 0.257 | 0.0245 | Cc1cc2cc(-c3ccc(C4=NC5(CC5)C(=O)N4C[C@@H]4CCN(C(=O)C5CC5)C4)c(C)c3)ccc2[nH]1 [compound 317] |
